Earlier results as cited in patent US5869086A, “Systems for the controlled release of pilocarpine” (LTS Lohmann Therapie-Systeme GmbH, priority 1993, dated 1999).

Assays:
[1] = tested on: patients suffering from glaucoma (eye); conditions: applied to the eye
[2] = tested on: postganglionic, parasympathetic acetylcholine receptors; conditions: textbook
adults = conditions: systemic, single maximum dose for adults; German Federal Board of Health

## CC[C@@H]1C(=O)OC[C@@H]1Cc1cncn1C [pilocarpine, (3S, 4R)-3-ethyl-4,5-dihydro-4-(1-methyl-1H-imidazole-5-ylmethyl)-2(3H)-furanone]
[1]
  duration of one application: 4 to 6 h
[2]
  action on acetylcholine receptors: specifically stimulates the postganglionic, parasympathetic acetylcholine receptors
heart; high doses, effect on the heart
  hazard of high systemic doses: hazardous to patients' life and health
heart; textbook, general application
  impairment of the heart function compared with carbachol: impairment of the heart function is more distinct
adults
  dosage at which risks are likely to arise: below 20 mg
